Reference: patent US5231101A, “Benzo[5,6]cyclohepta[1,2-B]pyridine derivatives and antiallergic agents comprising same” (SS Pharmaceutical Co., Ltd., priority 1991, dated 1993)

Experiments:
[1] = tested on: isolated guinea pig ileum; assay: Antihistaminergic action on the isolated guinea pig ileum (histamine-induced contraction); format: cell-based, guinea pig (Hartley male); settings: Cavia porcellus
Description: (1) Antihistaminergic action on the isolated guinea pig ileum
(§1) After a Hartley male guinea pig was sacrificed under ether anesthesia and exsanguination, the ileum was immediately isolated and a preparation was prepared. The preparation was suspended in a 20 ml Magnus bath containing 32° C. Tyrode solution (95% O2 -5% CO2 saturation) and was placed under resting tension of 1 g. The isometrical changes of the muscular tension produced were recorded on the polygraph through the force displacement transducer.

[2] = tested on: histamine-induced dermovascular penetration increase; assay: Effect on histamine-induced dermovascular penetration increase; format: in vivo, guinea pig (5-week old); settings: Cavia porcellus, 0.5 h; oral, 60 minutes before intradermal histamine (1 μg); blue spot area at 30 min; guinea pig; read-out: ID50 (the source's name)
Description: (4) Effect on histamine-induced dermovascular penetration increase In a shaved dorsal skin of a guinea pig (5-week old), 0.1 ml (1 μg) of histamine was intradermally injected. […] Thirty minutes later, the animal was sacrificed under exsanguination and was evaluated by square of the shortest and the longest diameters of the blue spot (histamine-injected site). Each test compound was orally administered 60 minutes before the injection of histamine.

ddy male mice = assay: Effects on sleeping time (pentobarbital-induced); format: in vivo, mouse (ddy male); settings: 10 mg/kg oral, 1 hour before pentobarbital (50 mg/kg i.p.), n=10, control 46.6 ± 3.8, ** p < 0.01 relative to the control (marked for loratadine only)
Description: (5) Effects on sleeping time Animals used in groups were ddy male mice, each group consisting of ten mice. After fasted for 24 hours, they were orally administered with a test compound. Upon an elapsed time of 1 hour after the oral administration, pentobarbital (50 mg/kg) was intraperitoneally administered and the sleeping time was measured. Statistical evaluation was performed by one-way analysis of variance, followed by the Turkey test for multiple comparison.

Acute toxicity = settings: mouse, in vivo; oral, ICR mice
Excerpt: The invention compound (Compound No. 1) was orally administered to ICR mice.

[3] = tested on: isolated guinea pig ileum; assay: Antiacetylcholinergic action on the isolated guinea pig ileum (acetylcholine-induced contraction); format: cell-based, guinea pig (Hartley male); settings: Cavia porcellus
Description: as §1
(2) Antiacetylcholinergic action on the isolated guinea pig ileum

[4] = tested on: isolated guinea pig ileum; assay: Antihistamine selectivity determined from experiments (1) and (2); format: cell-based; settings: determined from results of experiments (1) antihistaminergic and (2) antiacetylcholinergic action
Description: as §1
(3) Antihistamine selectivity
From the results of the above experiments (1) and (2), the antihistamine selectivity was determined in accordance with the following formula. [formula]

SMILES | IC50 ([1]; vs histamine (10^-5 M)-induced contraction, isolated guinea pig ileum, 32° C. Tyrode solution, read-out: IC50) | ED50 [2] | Sleeping time (ddy male mice) | LD50 (Acute toxicity) | IC50 ([3]; vs acetylcholine (3×10^-5 M), isolated guinea pig ileum, read-out: IC50) | Antihistamic selectivity [4] | IC50 [1] | IC50 [3]
CN1CCC(=C2c3ccc(C#N)cc3CCc3cccnc32)CC1 [Compound No. 1, 8-Cyano-11-(1-methyl-4-piperidylidene)-6,11-dihydro-5H-benzo[5,6]-cyclohepta[1,2-b]pyridine] | 0.0151 µM | 0.012 mg/kg | 62.9 ± 5.8 min | 657 mg/kg | 48.5 µM | 3212 |  | 
CC(C)(C)c1ccc(C(O)CCCN2CCC(C(O)(c3ccccc3)c3ccccc3)CC2)cc1 (stereo not drawn) [Terfenadine] |  | 3.34 mg/kg |  |  |  |  |  | 
CCOC(=O)N1CCC(=C2c3ccc(Cl)cc3CCc3cccnc32)CC1 [Loratadine] |  | 0.534 mg/kg | 75.7 ± 5.8 min |  |  | 190 | 0.123 µM | 23.4 µM
